Measured values from ChEMBL document CHEMBL4673175, “An epigrammatic status of the azole-based antimalarial drugs” (RSC Med Chem, 2020).
Values belong to the molecule of their own block, whether it stands above or below them.

How the values were obtained:
[1] = tested on: Falcipain-2 (Plasmodium falciparum); test: Inhibition of Plasmodium falciparum falcipain-2 in enzyme assay
Plasmodium falciparum [2] = test: Antimalarial activity against Plasmodium falciparum assessed as reduction in [3H]-hypoxanthine incorporation into DNA incubated for 36 hrs by beta counter method; assay type: functional, organism-based
Plasmodium berghei [3] = test: Antimalarial activity against Plasmodium berghei ANKA infected in Swiss albino mouse assessed as parasitemia suppression at 50 micromol/kg, po administered for 4 days and measured at 24 hrs post-last dose by Giemsa staining based microscopic method relative to control; assay type: functional; conditions: dose 50 µmol/kg; time 4 day
Plasmodium falciparum [4] = test: Antimalarial activity against chloroquine resistant Plasmodium falciparum RKL9 assessed as reduction in schizont maturation incubated for 24 hrs by Giemsa staining based assay; assay type: functional, organism-based; conditions: RKL9, 24 h
Plasmodium falciparum [5] = test: Antimalarial activity against chloroquine sensitive Plasmodium falciparum 3D7 incubated for 72 hrs by JSB1/JSB2 staining based assay; assay type: functional, organism-based; conditions: 3D7, 72 h
Plasmodium falciparum [6] = test: Antimalarial activity against chloroquine resistant Plasmodium falciparum incubated for 24 to 48 hrs by Giemsa staining based assay; assay type: functional, organism-based
Plasmodium falciparum [7] = test: Antimalarial activity against chloroquine sensitive Plasmodium falciparum incubated for 24 to 48 hrs by Giemsa staining based assay; assay type: functional, organism-based
Plasmodium falciparum [8] = test: Antiplasmodial activity against chloroquine resistant Plasmodium falciparum Dd2; assay type: functional, organism-based
Plasmodium falciparum [9] = test: Antiplasmodial activity against chloroquine sensitive Plasmodium falciparum D10; assay type: functional, organism-based
Plasmodium falciparum [10] = test: Antiplasmodial activity against chloroquine-resistant/mefloquine resistant early ring stage Plasmodium falciparum Dd2 by whole-cell SYBR Green I based assay; assay type: functional, organism-based
Plasmodium falciparum [11] = test: Antiplasmodial activity against chloroquine-sensitive/mefloquine resistant early ring stage Plasmodium falciparum 3D7 by whole-cell SYBR Green I based assay; assay type: functional, organism-based
Plasmodium falciparum [12] = test: Antiplasmodial activity against Plasmodium falciparum IPC5202 by whole-cell SYBR Green I based assay; assay type: functional, organism-based
Plasmodium falciparum [13] = test: Antiplasmodial activity against Plasmodium falciparum IPC4912 by whole-cell SYBR Green I based assay; assay type: functional, organism-based
Plasmodium falciparum [14] = test: Antimalarial activity against chloroquine sensitive Plasmodium falciparum 3D7 assessed as reduction in schizont maturation incubated for 24 hrs by Giemsa staining based assay; assay type: functional, organism-based; conditions: 3D7, 24 h
Plasmodium falciparum [15] = test: Antimalarial activity against chloroquine-resistant ring-stage Plasmodium falciparum W2 infected in human erythrocytes by HRP2 assay; assay type: functional, organism-based
Plasmodium falciparum [16] = test: Antiplasmodial activity against ring stage Plasmodium falciparum incubated for 72 hrs by SYBR Green I based assay; assay type: functional, organism-based
Plasmodium falciparum [17] = test: Antimalarial activity against chloroquine resistant Plasmodium falciparum; assay type: functional, organism-based
Plasmodium falciparum [18] = test: Antimalarial activity against chloroquine sensitive Plasmodium falciparum; assay type: functional, organism-based
[19] = molecular target: T1, Enoyl-acyl-carrier protein reductase (Plasmodium falciparum, UniProt Q965D5); test: Inhibition of Plasmodium falciparum enoyl-ACP reductase using crotonoyl-CoA as substrate by UV-Vis spectrophotometric method
T1 sequence (Q965D5 whole entry): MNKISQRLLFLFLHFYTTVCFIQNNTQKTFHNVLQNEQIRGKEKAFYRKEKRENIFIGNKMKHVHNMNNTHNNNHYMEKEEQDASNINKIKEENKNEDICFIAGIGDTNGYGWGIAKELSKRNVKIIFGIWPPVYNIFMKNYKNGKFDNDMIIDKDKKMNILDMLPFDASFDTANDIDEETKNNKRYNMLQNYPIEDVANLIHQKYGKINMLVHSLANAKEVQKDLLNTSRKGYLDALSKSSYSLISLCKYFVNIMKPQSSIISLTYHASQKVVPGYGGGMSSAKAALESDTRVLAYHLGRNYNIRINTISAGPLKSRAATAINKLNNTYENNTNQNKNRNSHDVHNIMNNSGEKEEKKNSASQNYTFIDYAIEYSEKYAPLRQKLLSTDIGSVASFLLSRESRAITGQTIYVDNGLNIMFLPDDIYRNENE

Hemozoin = test: Inhibition of beta-hematin formation at 5 to 100 mM incubated for 48 hrs; conditions: dose 5-100 mM
Plasmodium berghei [20] = test: Antimalarial activity against Plasmodium berghei ANKA infected in Balb-C mouse assessed as mouse survival time at 10 mg/kg, ip administered once per day for 4 consecutive days (reference value: 8.20 +/- 0.20 days); assay type: functional; conditions: time 4 day
Plasmodium berghei [21] = test: Antimalarial activity against Plasmodium berghei ANKA infected in Balb-C mouse assessed as parasitemia at 10 mg/kg, ip administered once daily for 4 consecutive days by Giemsa staining based assay relative to control; assay type: functional; conditions: time 4 day

IC50 [1]: 690 nM
Structure (SMILES): COc1cc(/C=C(/C#N)c2nc3ccccc3[nH]2)cc(OC)c1

Structure (SMILES): COc1ccc(Nc2n[nH]c(N)c2C#N)cc1
IC50 (Plasmodium falciparum [2]): 140 nM

Structure (SMILES): Cc1ccc(-n2cc(C=O)c(-c3ccccc3)n2)cc1
Activity (Plasmodium berghei [3]): 83% | IC50 (Plasmodium falciparum [4]): 33 nM

IC50 (Plasmodium falciparum [5]): < 5 µM
Structure (SMILES): NC(=S)N1N=C(c2ccc(N)cc2)CC1c1cn(-c2ccccc2)nc1-c1ccccc1 (stereo unspecified)

Structure (SMILES): CC(C)n1cncc1CCN
IC50 (Plasmodium falciparum [6]): 10 µM | IC50 (Plasmodium falciparum [7]): 10 µM

Structure (SMILES): Clc1ccccc1CN1CC1Cn1cc(-c2ccccc2)nn1 (stereo unspecified)
IC50 (Plasmodium falciparum [8]): ≤ 25 µM

Structure (SMILES): COc1ccc(CN2CC2Cn2cc(-c3ccccc3)nn2)cc1 (stereo unspecified)
IC50 (Plasmodium falciparum [9]): ≤ 25 µM

Structure (SMILES): Cn1nnnc1NCC1CCC2(CC1)OOC1(O2)C2CC3CC(C2)CC1C3 (stereo unspecified)
IC50 (Plasmodium falciparum [10]): 0.3 nM | IC50 (Plasmodium falciparum [11]): 0.3 nM | IC50 (Plasmodium falciparum [12]): 0.3 nM | IC50 (Plasmodium falciparum [13]): 0.3 nM

Structure (SMILES): Cc1ccc(-n2cc(/C=N/Nc3ccncc3)c(-c3ccccc3)n2)cc1
IC50 (Plasmodium falciparum [4]): 33 nM

IC50 (Plasmodium falciparum [5]): < 5 µM
Structure (SMILES): COc1ccc(-n2cc(C3CC(c4ccc(N)cc4)=NN3C(N)=S)c(-c3ccccc3)n2)cc1 (stereo unspecified)

Structure (SMILES): Cc1ccc(-c2cn(CC3CN3Cc3ccccc3)nn2)cc1 (stereo unspecified)
IC50 (Plasmodium falciparum [9]): ≤ 25 µM | IC50 (Plasmodium falciparum [8]): ≤ 25 µM

Structure (SMILES): C[C@@H]1CC[C@H]2[C@@H](C)C(=O)O[C@@H]3O[C@@]4(C)CC[C@@H]1[C@]32OO4 [ARTEMISININ]
IC50 (Plasmodium falciparum [14]): 6 nM

Structure (SMILES): FC(F)c1cn(-c2ccnc3cc(Cl)ccc23)nn1
IC50 (Plasmodium falciparum [15]): 1400 nM

IC50 (Plasmodium falciparum [16]): 725 nM
Structure (SMILES): CCOC(=O)c1sc(N/N=C(\C)c2ccccn2)nc1C

IC50 [1]: 690 nM
Structure (SMILES): COc1ccc(/C=C(\C#N)c2nc3ccccc3[nH]2)cc1O

Structure (SMILES): COC(=O)c1c(Nc2ccccc2)n[nH]c1N
IC50 (Plasmodium falciparum [2]): 140 nM

Structure (SMILES): Clc1ccccc1C(c1ccccc1)(c1ccccc1)n1ccnc1 [CLOTRIMAZOLE]
IC50 (Plasmodium falciparum [17]): 200 nM | IC50 (Plasmodium falciparum [18]): 200 nM

Structure (SMILES): Cn1nnnc1NCC1CCC2(CC1)OOC1(OO2)C2CC3CC(C2)CC1C3 (stereo unspecified)
IC50 (Plasmodium falciparum [10]): 0.3 nM | IC50 (Plasmodium falciparum [11]): 0.3 nM | IC50 (Plasmodium falciparum [12]): 0.3 nM | IC50 (Plasmodium falciparum [13]): 0.3 nM

Structure (SMILES): Clc1ccc2c(-n3cc(C4CC4)nn3)ccnc2c1
IC50 (Plasmodium falciparum [15]): 1400 nM

Structure (SMILES): COc1cccc(Nc2n[nH]c(N)c2C#N)c1
IC50 (Plasmodium falciparum [2]): 140 nM

Structure (SMILES): CC(C)c1nc(CC(N)C(=O)O)c[nH]1 (stereo unspecified)
IC50 (Plasmodium falciparum [6]): 10 µM | IC50 (Plasmodium falciparum [7]): 10 µM

IC50 (Plasmodium falciparum [14]): 4.4 nM
Structure (SMILES): CCOC(=O)C1=CNC(C)=C(C(=O)OCC)C1c1ccc(OCC(=O)N/N=C/c2cn(-c3ccccc3)nc2-c2ccccc2)cc1 (stereo unspecified)

Structure (SMILES): O=Cc1cn(-c2ccc(Cl)cc2)nc1-c1ccccc1
Activity (Plasmodium berghei [3]): 83% | IC50 (Plasmodium falciparum [4]): 33 nM

IC50 [19]: 30 µM
Structure (SMILES): Cc1ccc(-c2nn(-c3nccc(C(F)(F)F)n3)cc2C=O)cc1

Structure (SMILES): CC(C)n1c(CC(N)C(=O)O)cnc1Cc1ccccc1 (stereo unspecified)
IC50 (Plasmodium falciparum [6]): 10 µM | IC50 (Plasmodium falciparum [7]): 10 µM

Structure (SMILES): CCOC(=O)c1cn(-c2ccnc3cc(Cl)ccc23)nn1
IC50 (Plasmodium falciparum [15]): 1400 nM

IC50 (Plasmodium falciparum [5]): < 5 µM
Structure (SMILES): COc1ccc(C2=NN(C(N)=S)C(c3cn(-c4ccc(OC)cc4)nc3-c3ccccc3)C2)cc1 (stereo unspecified)

Structure (SMILES): COc1ccccc1Nc1n[nH]c(N)c1C#N
IC50 (Plasmodium falciparum [2]): 140 nM

Structure (SMILES): NCCc1cncn1Cc1ccccc1
IC50 (Plasmodium falciparum [6]): 10 µM | IC50 (Plasmodium falciparum [7]): 10 µM

Structure (SMILES): Clc1ccc2c(-n3cc(-c4ccccc4)nn3)ccnc2c1
IC50 (Plasmodium falciparum [15]): 1400 nM

IC50 (Plasmodium falciparum [5]): < 5 µM
Structure (SMILES): Cc1ccc(-n2cc(C3CC(c4ccc(N)cc4)=NN3C(N)=S)c(-c3ccccc3)n2)cc1 (stereo unspecified)

Structure (SMILES): CC(C)(C)c1nc(CC(N)C(=O)O)c[nH]1 (stereo unspecified)
IC50 (Plasmodium falciparum [6]): 10 µM | IC50 (Plasmodium falciparum [7]): 10 µM

Structure (SMILES): COc1cccc(/C=C(/C#N)c2nc3ccccc3[nH]2)c1
IC50 [1]: 690 nM

Structure (SMILES): c1ccc(-n2nnnc2OCC2CCC3(CC2)OOC2(O3)C3CC4CC(C3)CC2C4)cc1 (stereo unspecified)
IC50 (Plasmodium falciparum [10]): 0.3 nM | IC50 (Plasmodium falciparum [11]): 0.3 nM | IC50 (Plasmodium falciparum [12]): 0.3 nM | IC50 (Plasmodium falciparum [13]): 0.3 nM

Structure (SMILES): CNCC(Cn1cc(-c2ccccc2)nn1)NCc1ccccc1Cl (stereo unspecified)
IC50 (Plasmodium falciparum [9]): ≤ 25 µM | IC50 (Plasmodium falciparum [8]): ≤ 25 µM

Structure (SMILES): CC(C)c1nc(CCN)c[nH]1
IC50 (Plasmodium falciparum [6]): 10 µM | IC50 (Plasmodium falciparum [7]): 10 µM

IC50 [19]: 50 µM
Structure (SMILES): O=[N+]([O-])c1ccc(-c2cc(C(F)(F)F)nn2-c2ccccc2)cc1

Structure (SMILES): Cc1ccc(-n2cc(C(=O)O)c(-c3ccccc3)n2)cc1
Activity (Plasmodium berghei [3]): 83% | IC50 (Plasmodium falciparum [4]): 33 nM

Structure (SMILES): N#Cc1c(Nc2ccccc2)n[nH]c1N
IC50 (Plasmodium falciparum [2]): 140 nM

Structure (SMILES): Clc1ccc(COC(Cn2ccnc2)c2ccc(Cl)cc2Cl)c(Cl)c1 (stereo unspecified) [MICONAZOLE]
IC50 (Plasmodium falciparum [17]): 200 nM | IC50 (Plasmodium falciparum [18]): 200 nM

Structure (SMILES): CC(C)n1cncc1CC(N)C(=O)O (stereo unspecified)
IC50 (Plasmodium falciparum [6]): 10 µM | IC50 (Plasmodium falciparum [7]): 10 µM

Structure (SMILES): CC(=O)N1CCN(c2ccc(OCC3COC(Cn4ccnc4)(c4ccc(Cl)cc4Cl)O3)cc2)CC1 (stereo unspecified) [KETOCONAZOLE]
IC50 (Plasmodium falciparum [17]): 200 nM | IC50 (Plasmodium falciparum [18]): 200 nM

IC50 (Plasmodium falciparum [5]): < 5 µM
Structure (SMILES): NC(=S)N1N=C(c2ccc(N)cc2)CC1c1cn(-c2ccc(Cl)cc2)nc1-c1ccccc1 (stereo unspecified)

IC50 (Plasmodium falciparum [9]): ≤ 25 µM
Structure (SMILES): CCNCC(Cn1cc(-c2ccccc2)nn1)NCc1ccccc1 (stereo unspecified)

Structure (SMILES): COC(=O)c1c(Nc2cccc(OC)c2)n[nH]c1N
IC50 (Plasmodium falciparum [2]): 140 nM

Structure (SMILES): CC(C)(C)n1c(CC(N)C(=O)O)cnc1Cc1ccccc1 (stereo unspecified)
IC50 (Plasmodium falciparum [6]): 10 µM | IC50 (Plasmodium falciparum [7]): 10 µM

Structure (SMILES): O=[N+]([O-])c1ccc(N/N=C/c2cn(-c3ccc(Cl)cc3)nc2-c2ccccc2)c([N+](=O)[O-])c1
IC50 (Plasmodium falciparum [4]): 33 nM

Structure (SMILES): O=C(O)c1cn(-c2ccc(Cl)cc2)nc1-c1ccccc1
Activity (Plasmodium berghei [3]): 83% | IC50 (Plasmodium falciparum [4]): 33 nM

IC50 (Plasmodium falciparum [9]): ≤ 25 µM
Structure (SMILES): CCNCC(Cn1cc(-c2ccccc2)nn1)NCc1ccc(Cl)cc1 (stereo unspecified)

Structure (SMILES): Clc1ccc2c(-n3cc(OC4CCCCO4)nn3)ccnc2c1 (stereo unspecified)
IC50 (Plasmodium falciparum [15]): 1400 nM

Structure (SMILES): Cc1ccc(NC(=O)c2ccc3[nH]c(-c4ccc([N+](=O)[O-])o4)nc3c2)c(C)c1
inhibition (Hemozoin): < 98% | Time (Plasmodium berghei [20]): 20.2 days | Activity (Plasmodium berghei [21]): 3.05%

Structure (SMILES): CC(C)(C)c1nc(CCN)c[nH]1
IC50 (Plasmodium falciparum [6]): 10 µM | IC50 (Plasmodium falciparum [7]): 10 µM
